Experimental data from ChEMBL document CHEMBL1126997, “Synthesis and antibacterial activity of two catechol-bearing penems” (1993).

Key:
Type in all cases: functional
[1] = test system: Providencia stuartii; assay: Compound was tested in vitro for antimicrobial activity against Providencia stuartii T90
[2] = test system: Pseudomonas aeruginosa; assay: Compound was tested in vitro for antimicrobial activity against Pseudomonas aeruginosa NCTC 10662
[3] = test system: Pseudomonas aeruginosa; assay: Compound was tested in vitro for antimicrobial activity against Pseudomonas aeruginosa K799
[4] = test system: Escherichia coli; assay: Compound was tested in vitro for antimicrobial activity against Escherichia coli DC0
[5] = test system: Escherichia coli; assay: Compound was tested in vitro for antimicrobial activity against Escherichia coli NCTC 10418
[6] = test system: Pseudomonas aeruginosa; assay: Compound was tested in vitro for antimicrobial activity against Pseudomonas aeruginosa Dagleish: beta-lactamase producer
[7] = test system: Escherichia coli; assay: Compound was tested in vitro for antimicrobial activity against Escherichia coli DC2: cell wall deficient mutant strain
[8] = test system: Proteus mirabilis; assay: Compound was tested in vitro for antimicrobial activity against Proteus mirabilis 977

Structure (SMILES) | MIC [1] [µg/mL] | MIC [2] [µg/mL] | MIC [3] [µg/mL] | MIC [4] [µg/mL] | MIC [5] [µg/mL] | MIC [6] [µg/mL] | MIC [7] [µg/mL] | MIC [8] [µg/mL]
C[C@@H](O)[C@H]1C(=O)N2C(C(=O)[O-])=C(CO)S[C@H]12.[Na+] | 16 | 64 | 64 | 8 | 8 | 64 | 8 | 16
CC(=O)Oc1cccc(C(=O)OCC2=C(C(=O)[O-])N3C(=O)C[C@H]3S2)c1OC(C)=O.[Na+] | > 32 | 8 | > 32 | > 32 | 8 | > 32 | 0.5 | 16
O=C([O-])C1=C(CO)S[C@@H]2CC(=O)N12.[Na+] | 32 | > 64 | > 64 | 32 | 16 | > 64 | 32 | 32
C[C@@H](O)[C@H]1C(=O)N2C(C(=O)[O-])=C(COC(=O)c3ccc(O)c(O)c3)S[C@H]12.[Na+] | 32 | 32 | > 64 | 1 | 0.5 | > 64 | 0.12 | 32
